According to ChEMBL document CHEMBL3779770, “Synthesis, biological evaluation and molecular docking study of some novel indole and pyridine based 1,3,4-oxadiazole derivatives as potential antitubercular agents” (Bioorg Med Chem Lett, 2016):
Values after ≈ are worked out from the molar mass of the structure shown.

Key:
[1] = (§1) Cytotoxicity against human HeLa cells after 72 hrs by MTT assay; format: cell-based; conditions: HeLa cells
HeLa = assay: as §1; format: cell-based; conditions: hela, 72 h
[2] = tested on: Mycobacterium tuberculosis; assay: Antitubercular activity against dormant state Mycobacterium tuberculosis H37Ra assessed as viable cells after 12 days by XTT reduction menadione assay; format: functional, organism-based; conditions: 288 h
[3] = Cytotoxicity against human PANC1 cells after 48 hrs by MTT assay; format: cell-based, PANC-1; conditions: for GI50 at 48 h: PANC1 cells; for GI90: panc-1, 48 h
Escherichia coli = assay: Antibacterial activity against Escherichia coli NCIM 2688 after 8 hrs; format: functional, organism-based; conditions: NCIM 2688, 8 h
Staphylococcus aureus = assay: Antibacterial activity against Staphylococcus aureus NCIM 2010 after 12 hrs; format: functional, organism-based; conditions: NCIM 2010, 12 h
[4] = tested on: Mycobacterium tuberculosis; assay: Antitubercular activity against active state Mycobacterium tuberculosis H37Ra assessed as viable cells after 8 days by XTT reduction menadione assay; format: functional, organism-based; conditions: 192 h
A549 = assay: (§2) Cytotoxicity against human A549 cells after 48 hrs by MTT assay; format: cell-based; conditions: a549, 48 h
[5] = as §2; format: cell-based; conditions: A549 cells
Pseudomonas fluorescens = assay: Antibacterial activity against Pseudomonas fluorescens NCIM 2036 after 8 hrs; format: functional, organism-based; conditions: NCIM 2036, 8 h
Bacillus subtilis = assay: Antibacterial activity against Bacillus subtilis NCIM 2079 after 12 hrs; format: functional, organism-based; conditions: NCIM 2079, 12 h

| SMILES | GI50 at 72 h [1] [µg/mL] | GI90 (HeLa) [µg/mL] | IC50 [2] [µg/mL] | MIC [2] [µg/mL] | GI50 at 48 h [3] [µg/mL] | GI90 [3] [µg/mL] | IC50 (Escherichia coli) [µg/mL] | MIC (Escherichia coli) [µg/mL] | IC50 (Staphylococcus aureus) [µg/mL] | MIC (Staphylococcus aureus) [µg/mL] | IC50 [4] [µg/mL] | MIC [4] [µg/mL] | GI90 (A549) [µg/mL] | GI50 at 48 h [5] [µg/mL] | IC50 (Pseudomonas fluorescens) [µg/mL] | MIC (Pseudomonas fluorescens) [µg/mL] | IC50 (Bacillus subtilis) [µg/mL] | MIC (Bacillus subtilis) [µg/mL] |
| --- | --- | --- | --- | --- | --- | --- | --- | --- | --- | --- | --- | --- | --- | --- | --- | --- | --- | --- |
| COc1ccc(/C=C\C(=O)N2N=C(c3ccncc3)OC2c2c[nH]c3ccccc23)cc1 (configuration not stated) | > 30 | > 30 | > 30 | > 30 | > 30 | > 30 | 14 (≈ 33 µM) | 182 (≈ 429 µM) | 7.72 (≈ 18.2 µM) | 88.1 (≈ 208 µM) | > 30 | > 30 | > 30 | > 30 | 15.7 (≈ 37 µM) | 101 (≈ 239 µM) | 15.7 (≈ 37 µM) | 156 (≈ 369 µM) |
| NC[C@H]1O[C@H](O[C@H]2[C@H](O)[C@@H](O[C@H]3O[C@H](CO)[C@@H](O)[C@H](N)[C@H]3O)[C@H](N)C[C@@H]2N)[C@H](O)[C@@H](O)[C@@H]1O [KANAMYCIN] |  |  |  |  |  |  | 0.13 (≈ 0.268 µM) | 1.62 (≈ 3.34 µM) | > 30 | > 33 |  |  |  |  | 0.014 (≈ 0.0289 µM) | 0.49 (≈ 1.01 µM) | 0.37 (≈ 0.764 µM) | 1.35 (≈ 2.79 µM) |
| O=C(/C=C\c1cccc(O)c1)N1N=C(c2ccncc2)OC1c1c[nH]c2ccccc12 (configuration not stated) | > 30 | > 30 | > 30 | > 30 | > 30 | > 30 | 16.6 (≈ 40.6 µM) | 49.2 (≈ 120 µM) | 18.2 (≈ 44.5 µM) | 84.4 (≈ 206 µM) | > 30 | > 30 | > 30 | > 30 | 17.4 (≈ 42.5 µM) | 82.8 (≈ 202 µM) | 19.8 (≈ 48.4 µM) | 121 (≈ 295 µM) |
| O=C(/C=C\c1ccccc1)N1N=C(c2ccncc2)OC1c1c[nH]c2ccccc12 (configuration not stated) | > 30 | > 30 | > 30 | > 30 | > 30 | > 30 | 10.3 (≈ 26 µM) | 50.5 (≈ 128 µM) | 11.9 (≈ 30.1 µM) | 42.2 (≈ 107 µM) | 28.7 (≈ 72.8 µM) | > 30 | > 30 | > 30 | 11.1 (≈ 28 µM) | 51.3 (≈ 130 µM) | 12.7 (≈ 32.1 µM) | 45.4 (≈ 115 µM) |
| O=C(/C=C\c1cccc(Cl)c1)N1N=C(c2ccncc2)OC1c1c[nH]c2ccccc12 (configuration not stated) | > 30 | > 30 | > 30 | > 30 | > 30 | > 30 | 14 (≈ 32.6 µM) | > 256 | 14.5 (≈ 33.9 µM) | > 256 | 2.54 (≈ 5.92 µM) | > 30 | > 30 | > 30 | 12.1 (≈ 28.3 µM) | > 256 | 19.3 (≈ 45 µM) | > 256 |
| CC(=O)O[C@H]1C(=O)[C@@]2(C)[C@H]([C@H](OC(=O)c3ccccc3)[C@]3(O)C[C@H](OC(=O)[C@H](O)[C@@H](NC(=O)c4ccccc4)c4ccccc4)C(C)=C1C3(C)C)[C@]1(OC(C)=O)CO[C@@H]1C[C@@H]2O [PACLITAXEL] | 0.005 (≈ 0.00586 µM) | 0.075 (≈ 0.0878 µM) |  |  | 0.0038 (≈ 0.00445 µM) | 0.078 (≈ 0.0913 µM) |  |  |  |  |  |  | 5.88 (≈ 6.89 µM) | 0.12 (≈ 0.141 µM) |  |  |  |  |
| O=C(/C=C\c1ccc(Br)cc1)N1N=C(c2ccncc2)OC1c1c[nH]c2ccccc12 (configuration not stated) | > 30 | > 30 | > 30 | > 30 | > 30 | > 30 | 12.1 (≈ 25.6 µM) | > 256 | 12.8 (≈ 27 µM) | > 256 | > 30 | > 30 | > 30 | > 30 | 10.4 (≈ 22 µM) | > 256 | 15.2 (≈ 32.1 µM) | > 256 |
| O=C(/C=C\c1cccc(Cl)c1Cl)N1N=C(c2ccncc2)OC1c1c[nH]c2ccccc12 (configuration not stated) | > 30 | > 30 | > 30 | > 30 | > 30 | > 30 | 5.99 (≈ 12.9 µM) | 159 (≈ 343 µM) | 7.59 (≈ 16.4 µM) | 162 (≈ 349 µM) | > 30 | > 30 | > 30 | > 30 | 6.79 (≈ 14.7 µM) | 198 (≈ 427 µM) | 8.39 (≈ 18.1 µM) | 168 (≈ 362 µM) |
| O=C(/C=C\c1ccccc1F)N1N=C(c2ccncc2)OC1c1c[nH]c2ccccc12 (configuration not stated) | > 30 | > 30 | > 30 | > 30 | > 30 | > 30 | 25.6 (≈ 62 µM) | > 256 | 28.8 (≈ 69.8 µM) | 202 (≈ 489 µM) | > 30 | > 30 | > 30 | > 30 | 26.4 (≈ 64 µM) | > 256 | 32 (≈ 77.5 µM) | > 256 |
| CC1(C)S[C@@H]2[C@H](NC(=O)[C@H](N)c3ccccc3)C(=O)N2[C@H]1C(=O)O [AMPICILLIN] |  |  |  |  |  |  | 0.086 (≈ 0.246 µM) | 1.46 (≈ 4.18 µM) | 0.42 (≈ 1.2 µM) | 1 (≈ 2.86 µM) |  |  |  |  | 1.87 (≈ 5.35 µM) | 4.36 (≈ 12.5 µM) | 3.15 (≈ 9.02 µM) | 10.3 (≈ 29.5 µM) |
| O=C(/C=C\c1ccc(O)cc1)N1N=C(c2ccncc2)OC1c1c[nH]c2ccccc12 (configuration not stated) | > 30 | > 30 | > 30 | > 30 | > 30 | > 30 | > 256 | > 256 | > 256 | > 256 | > 30 | > 30 | > 30 | > 30 | 45 (≈ 110 µM) | > 256 | > 256 | > 256 |
| O=C(/C=C/c1c(Cl)cccc1Cl)N1N=C(c2ccncc2)OC1c1c[nH]c2ccccc12 (configuration not stated) | > 30 | > 30 | 13.7 (≈ 29.6 µM) | > 30 | > 30 | > 30 | 14.8 (≈ 31.9 µM) | > 256 | 86.8 (≈ 187 µM) | 148 (≈ 320 µM) | 12.7 (≈ 27.4 µM) | > 30 | > 30 | > 30 | 15.6 (≈ 33.6 µM) | > 256 | 19.2 (≈ 41.4 µM) | > 256 |
| O=C(/C=C\c1cccc(F)c1)N1N=C(c2ccncc2)OC1c1c[nH]c2ccccc12 (configuration not stated) | > 30 | > 30 | > 30 | > 30 | > 30 | > 30 | > 256 | > 256 | > 256 | > 256 | > 30 | > 30 | > 30 | > 30 | > 256 | > 256 | > 256 | > 256 |
